Where two headings read alike, the source gives them in different places.
What was measured:
Type in all cases: cell-based, mice
hTNFtg SFs = experiment: CCL5 and CCL20 ELISA on hTNFtg synovial fibroblasts; details: Mus musculus, Fibroblast; for activity at 10 µM: compound 10 μM; for activity at 10 µM / activity at 50 µM / activity at 25 µM: 48 h; for activity at 50 µM: compound 50 μM; for activity at 25 µM: compound 25 μM
Protocol: (§1) Primary SFs were derived from a) human TNF transgenic (hTNFTg) mice (Keffer et al., 1991) as well as from b) CBA/C57BL6 wild type mice.
hTNFtg mice overexpress human TNF, resulting in the spontaneous development of arthritis.
(§2) SFs were isolated as previously described by Armaka et al., 2009, from the ankle joints of hTNFtg or CBA/C57BL6 wild type (wt) littermates. Briefly, ankle joints were digested with Collagenase IV (Sigma Aldrich, C5138) for 45 minutes at a 37° C. shaking waterbath and after 5 days in culture at 37° C. and 5% CO2, a depletion of CD45+ lineage cells was performed using a Biotin anti-mouse CD45 Antibody (Biolegend, 103104) and Dynabeads™ Biotin Binder (ThermoFisher 11047), according to the manufacturer's protocol. After 10 days in culture, SFs were seeded overnight (O/N) at a concentration of 2×10^4 cells/well in a 96 well plate in 1×DMEM, supplemented with 100 U/ml Penicillin Streptomycin (P/S) and 10% Fetal Bovine Serum (FBS). The next day the cells were synchronized by starvation that included their O/N plating in low serum medium (0.5% FBS). Following the O/N starvation, the hTNFg and the WT SFs were treated with different concentrations of the experimental compounds. The SFs were at the same time activated with 10 ng/ml hTNF (Peprotech, 300-01A). 48 h following the treatment the cell culture supernatants were collected and analyzed by ELISA (R&S Systems, Duoset, DY478 and DY760) according to the manufacturer's protocol, for the detection of CCL5/Rantes and CCL20/Mip3, two known inflammatory chemokines. The IC50 values were determined as the concentration of the compounds required to reduce the levels of secreted CCL5 and CCL20 by 50%.
(§3) Table 7 summarizes the reduction of CCL5 and CCL20 levels achieved with the test compounds of the invention. Data are presented as percentages of the chemokine levels detected in treated cells compared to 100% levels of the chemokines detected in the untreated cells.
(§4) Table 8 summarizes the values of IC50 and toxicity for the test compounds of the invention. Dose response curves regarding the WT SFs were produced with 10 ng/ml hTNF stimulation for all compounds, with the exception of the compounds E and F, where WT cells were induced using hTNF at 1 ng/ml: […]

hTNF-activated wt SFs = experiment: CCL5 and CCL20 ELISA on hTNF-activated wild type synovial fibroblasts; details: for activity at 10 µM / activity at 50 µM / IC50 / activity at 25 µM: Mus musculus, Fibroblast; for activity at 10 µM / activity at 50 µM / activity at 25 µM / CCL5 WT, percentage of level in untreated cells / CCL20 WT, percentage of level in untreated cells: 48 h; for activity at 50 µM: compound 50 μM; for IC50: 10 ng/ml hTNF stimulation
Source text: as §1
By testing the compounds in a) and b) we accessed their effect on the activated SFs phenotype caused by both the endogenous hTNF upregulation and the exogenous hTNF administration. In this way it was confirm the ability of the compounds of the invention to act in the TNF pathway directly downstream of TNF.
as §2
In order to determine the efficiency of the compounds of the invention, the same protocol was repeated with some minor modifications. Mainly, the concentration of hTNF was 10-fold reduced, i.e., adjusted to 1 ng/ml, and the SFs were seeded overnight at a concentration of 10^4 cells/well.
as §3, §4

SFs and PMCs = experiment: Compound cytotoxicity, Crystal Violet assay
Protocol: The toxicity of the test compounds was assessed at several concentrations using the Crystal Violet assay on both SFs and PMCs. Adherent viable cells were Methanol fixed and stained with Crystal Violet. Optical density was quantified at […], as described in Feoktistova et al., 2016.

[1] = read-out: CCL5 hTNFtg, percentage of level in untreated cells
[2] = read-out: CCL20 hTNFtg, percentage of level in untreated cells
[3] = read-out: IC50 (μM) CCL5 hTNFtg
[4] = read-out: IC50 (μM) CCL20 hTNFtg
[5] = 10 ng/mL hTNF, compound 10 μM, read-out: CCL5 WT, percentage of level in untreated cells
[6] = 10 ng/mL hTNF, compound 10 μM, read-out: CCL20 WT, percentage of level in untreated cells

| Compound | activity at 10 µM (hTNFtg SFs; [1]) [%] | activity at 10 µM (hTNFtg SFs; [2]) [%] | IC50 (hTNFtg SFs; [3]) [µM] | IC50 (hTNFtg SFs; [4]) [µM] | activity at 10 µM (hTNF-activated wt SFs; [5]) [%] | activity at 10 µM (hTNF-activated wt SFs; [6]) [%] | IC50 (hTNF-activated wt SFs; read-out: IC50 (μM) CCL5 WT) [µM] | IC50 (hTNF-activated wt SFs; read-out: IC50 (μM) CCL20 WT) [µM] | Cell Toxicity (SFs and PMCs) [µM] | activity at 25 µM (hTNFtg SFs; [1]) [%] | activity at 25 µM (hTNFtg SFs; [2]) [%] | other results |
| --- | --- | --- | --- | --- | --- | --- | --- | --- | --- | --- | --- | --- |
| COc1cc(N)c(Cl)cc1C(=O)NCC1(N2CCSCC2)CCCCCC1 [Compound 44, 4-amino-5-chloro-2-methoxy-N-((1-thiomorpholinocycloheptyl)methyl)benzamide] | 69 | 45 | 12.6 | ~15 | 30 | 75 | 3.7 | ~65 | >100 | – | – | activity at 50 µM (hTNFtg SFs; [1]): 26%; activity at 50 µM (hTNFtg SFs; [2]): 27%; activity at 50 µM (hTNF-activated wt SFs; 10 ng/mL hTNF, read-out: CCL5 WT, percentage of level in untreated cells): 2%; activity at 50 µM (hTNF-activated wt SFs; 10 ng/mL hTNF, read-out: CCL20 WT, percentage of level in untreated cells): 46% |
| COc1cc(N)c(Cl)cc1C(=O)NCC1(c2ccc(F)cc2)CCCCCC1 [Compound 57, 4-amino-5-chloro-N-((1-(4-fluorophenyl)cycloheptyl)methyl)-2-methoxybenzamide] | 40 | 27 | 4 | 2.4 | 49 | 13 | 18 | 3.5 | >25 | 40 | 25 | activity at 25 µM (hTNF-activated wt SFs; 10 ng/mL hTNF, compound 25 μM, read-out: CCL5 WT, percentage of level in untreated cells): 14%; activity at 25 µM (hTNF-activated wt SFs; 10 ng/mL hTNF, compound 25 μM, read-out: CCL20 WT, percentage of level in untreated cells): 6% |
| COc1cc(N)c(Cl)cc1C(=O)NCC1(c2ccc(F)cc2Cl)CCCCCC1 [Compound 58, 4-amino-5-chloro-N-((1-(2-chloro-4-fluorophenyl)cycloheptyl)methyl)-2-methoxybenzamide] | 64 | 32.5 | 0.95 | 0.74 | – | 48.5 | 2.96 | 2.44 | >50 | 53.5 | 22.5 | CCL5 WT, percentage of level in untreated cells (hTNF-activated wt SFs; 1 ng/mL hTNF, compound 10 μM): 8%; CCL5 WT, percentage of level in untreated cells (hTNF-activated wt SFs; 1 ng/mL hTNF, compound 25 μM): 9%; CCL20 WT, percentage of level in untreated cells (hTNF-activated wt SFs; 1 ng/mL hTNF, compound 25 μM): 14%; CCL5 WT, percentage of level in untreated cells (hTNF-activated wt SFs; 10 ng/mL hTNF, compound 10 μM): 0%; CCL5 WT, percentage of level in untreated cells (hTNF-activated wt SFs; 10 ng/mL hTNF, compound 25 μM): 0%; CCL20 WT, percentage of level in untreated cells (hTNF-activated wt SFs; 10 ng/mL hTNF, compound 25 μM): 0%; activity at 10 µM (hTNF-activated wt SFs; 1 ng/mL hTNF, compound 10 μM, read-out: CCL20 WT, percentage of level in untreated cells): 15% |
